Test results as given in EP4574175A1, “PRODRUG FOR ANTI-AGING RELATED DISEASES AND USE METHOD THEREFOR” (BEIJING SUNCELL BIO-MEDICAL CO., LTD., priority 2022, dated 2024).
Like-named read-outs stand apart in the source and are kept apart here.

Assays:
[1] = tested on: induced senescent A549 cell; assay: In vitro compound screening, cell viability test (CCK-8); assay type: cell-based, human
[2] = tested on: induced senescent HEF cell; assay: as above; assay type: cell-based, human; settings: HEF-ETO, Figure 1C
Method: Briefly, the human embryonic skin tissues and the fetal lung tissues obtained from the aborted tissues with the patient's informed consent were minced with the forcep and incubated in 1 mg/ml collagenase IV at 37°C for 1-2 hours. After the enzyme treatment, the cells were collected by centrifugation and resuspended in HEF medium (Dulbecco's modified Eagle medium (DMEM, Gibco) containing 10% fetal bovine serum (FBS, Ausbian), 1% GlutaMAX (Gibco), 1% non-essential amino acids (NEAA, Gibco) and 1% penicillin/streptomycin (Gibco). Gibco). Cells were plated on the 10 cm tissue culture dishes and grown in 10% FBS DMEM. […] They were passaged and cryopreserved according to Lonza's method. A549 cells, BJ cells and MRC5 cells were purchased from ATCC and cultured in DMEM medium containing 10% fetal bovine serum (FBS, Ausbian), and 1% penicillin/streptomycin (Gibco).
Cell Counting Kit-8 (CCK-8) assay was used to assess the cell viability. The senescent and non-senescent cells or chondrocytes were seeded into the 96-well plates and cultured overnight. The cells were then treated with control (0.05% DMSO) or different concentrations of the drug to be tested. […] Absorbance was measured at the wavelength of 450 nm.

[3] = tested on: platelets; assay: In vivo platelet toxicity test; design: species or system C57 mice; settings: multiple rounds i.p.
Method: (§1) All drugs were mixed in 85% physiological saline, 5% DMSO (Sigma, D8418) and 10% Solutol HS 15 (Sigma, 42966), and administered to mice by intraperitoneal (i.p.) injection. To treat the bleomycin-injured young mice, A13 (2 mg/kg), A13bGa1 (5 mg/kg), or an empty vehicle control was administered three consecutive days per week for four weeks. A1331852 (abbreviated as A13) was purchased from MCE.
(§2) A single administration of A13 or A13bG was performed. Female 5-6 week old C57 mice were treated with a single intraperitoneal injection. A13 and A13bG were administered in three different dose groups of 2, 5, and 20 mg/kg. Approximately 50 µl of blood was collected from each mouse at different time points into the EDTA tubes (RAM Scientific) by means of inner canthal blood extraction, and analyzed using a haematology analyzer for a blood routine examination and a platelet counting. Multiple administrations of A13 or A13bG were performed. Female 5-6 week old C57 mice were treated with multiple intraperitoneal injections. A13 and A13bG were administered in three different dose groups of 2, 5 and 20 mg/kg, three consecutive days per week, followed by a 4-day withdrawal for 3 weeks. The time points of administration were in the afternoon of days 0, 1, 2, 7, 8, 9, 14, 15, and 16, and the time points of blood collection and testing were in the morning of days 1, 3, 5, 8, 10, 12, 15, 17, and 19, respectively.
For a blood routine examination, 50 µl of fresh blood was collected from each mouse and immediately mixed with EDTA. Blood samples were analyzed by Celltac Alpha MEK-6400 series haematology analyzer (Nihon Kohden, MEK-6400). Data were expressed as the number of different blood cells or platelets per µl of blood. For the serum biochemical analysis, the blood samples were collected, coagulated for 2 hours at room temperature or overnight at 4°C, and then centrifuged (1000 g, 10 minutes) to obtain serum. A 200 µl of serum was aliquoted and analyzed for alanine aminotransferase (ALT), aspartate aminotransferase (AST), uric acid (UA), and creatinine (CREA) by a chemistry analyzer (Mindray, BS-350E).

[4] = Daily observation of mice during multiple administration; assay type: in vivo, C57 mice; settings: after 3 consecutive rounds of administration
Method: as §2

[5] = tested on: mouse model of Bleomycin-induced pulmonary fibrosis; assay: Bleomycin-induced pulmonary fibrosis mouse model; assay type: in vivo, C57 mice; settings: A13 2 mg/kg
Method: as §1
Bleomycin was purchased from Selleck. […]. Drug treatment was initiated four days after modelling, and the drug was administered three consecutive days per week for four consecutive weeks, after which the mice were executed for material collection.
All animals (including those found dead, dying, and euthanised) were autopsied, and the lung tissues were preserved. The lungs were separated, the fat and other tissues were removed, the surface fluid was absorbed using a filter paper, and the whole lungs were weighed (those found dead, dying, and euthanised) for calculation of the lung weight index. The right lung and bronchiole were fixed in 10% neutral buffered formalin solution, embedded in paraffin, sectioned, prepared into slices, and stained with HE for a histopathological and morphological observation of the lung. The degree of the lesions such as the inflammatory cell infiltration in the lung tissue were graded according to a 4-grade classification (slight, mild, moderate, severe) using a standard terminology for diagnosis and classification. The left lung tissue was clipped and stored temporarily below -60°C. Lung weight index(%) = lung weight/body weight × 100%. [formula]
Masson trichrome stain kit (Solarbio, G1340) was used to detect fibrosis in the lung tissue. The formalin-fixed, and paraffin-embedded lung sections were dewaxed with xylene, and then rehydrated with 100% alcohol, 95% alcohol and distilled water. The sections were then stained according to the manufacturer's instructions. Afterwards, the sections were rapidly dehydrated with 95% alcohol and 100% alcohol, cleaned with xylene and covered with the coverslips. […]

[6] = in vitro; settings: mouse
Method: […] Samples were taken and analyzed at time points 0, 15, 30, 45 and 60 minutes during the incubation. The reaction was terminated by adding an amount of acetonitrile solution containing the internal standard. […] The residual percentage, half-life, intrinsic clearance, amplified clearance, hepatic clearance and hepatic extraction ratio were determined. The entire experiment was performed in triplicate. All data calculations were performed by Microsoft Excel software. Peak areas were detected by extracting the ionic spectrum. The in vitro half-life (t1/2) of the parent compound was detected by fitting the natural logarithm of the percentage elimination of the parent compound linearly to time.
The in vitro intrinsic clearance (in µL/min/mg protein) was calculated using the following equation: in vitro CLint = kV/N
The amplified clearance (in mL/min/kg) was calculated using the following equation: Amplified CLint = kV/N × the amplification factor [formula]
The hepatic clearance (in mL/min/kg) was calculated using the following equation: The predicted hepatic CLH = (Q×Fu/RB×theamplifiedCLint)/([…]) [formula] • V = the incubation volume per well (0.2 mL); • N = the total amount of protein (mg) • Q = the hepatic blood flow (mL/min/kg) • Fu = the plasma free rate (assumed to be 1) • RB = the whole blood partition coefficient (assumed to be 1)
The hepatic […] was calculated using the following equation: The hepatic extraction ratio(ER) = (thepredictedhepaticCLH)/Q [formula]

[7] = human, 1 µM
[8] = monkey, 1 µM
[9] = dog, 1 µM
[10] = rat, 1 µM
[11] = in vitro; settings: human
[12] = in vitro; settings: monkey
[13] = in vitro; settings: dog
[14] = in vitro; settings: rat
[15] = lung HE, number of animals of 6, A13bGa1 5 mg/kg
[16] = number of animals of 6, A13bGa1 5 mg/kg

Cc1c(-c2ccc(N3CCc4cccc(C(=O)Nc5nc6ccccc6s5)c4C3)nc2C(=O)O)cnn1CC12CC3CC(CC(C3)C1)C2 [A13, 3-[1-(adamantan-1-ylmethyl)-5-methylpyrazol-4-yl]-6-{8-[(1,3-benzothiazol-2-yl)carbamoyl]-3,4-dihydro-1H-isoquinolin-2-yl}pyridine-2-carboxylic acid]
killing activity on the senescent cells compared with ABT-263 ([1]; A549-CDDP, Figure 1B): higher than that of the classical small molecule inhibitor ABT-263 | senescent cell killing activity and selectivity in vitro (screening) ([1]; induced senescent A549 cell model, Figure 1A): good senescent cell killing activity and selectivity in vitro | killing activity on the senescent cells compared with ABT-263 [2]: higher than that of the classical small molecule inhibitor ABT-263 | toxic effects on the platelets ([3]; 3 consecutive days per week for 3 weeks, 2 mg/kg): very serious toxic effects on the platelets | toxic effects on the platelets ([3]; 3 consecutive days per week for 3 weeks, 2, 5 and 20 mg/kg): strong destructive effects on the platelets | mice depilated, dispirited and in poor state ([4]; 5 mg/kg i.p.): 2/4 | mice depilated, dispirited and in poor state ([4]; 20 mg/kg i.p.): 2/4 | pathological manifestations of the pulmonary fibrosis (Masson staining) ([5]; A13bGa1 5 mg/kg i.p.): not improved | lung index ([5]; A13bGa1 5 mg/kg i.p., 3 consecutive days per week for 4 weeks): no improvement | inflammation and consolidation of the mouse lungs (pathological sections) ([5]; A13bGa1 5 mg/kg i.p., HE staining): no improvement was observed | Bleeding, alveolar/interstitial: mild (++) [5, 15]: 2 | Bleeding, alveolar/interstitial: moderate (+++) [5, 15]: 0 | Bleeding, alveolar/interstitial: negative (-) [5, 15]: 2 | Bleeding, alveolar/interstitial: slight (+) [5, 15]: 2 | Exudative oedema, alveolar: mild (++) [5, 15]: 1 | Exudative oedema, alveolar: moderate (+++) [5, 15]: 1 | Exudative oedema, alveolar: negative (-) [5, 15]: 0 | Exudative oedema, alveolar: severe (++++) [5, 15]: 3 | Exudative oedema, alveolar: slight (+) [5, 15]: 1 | The infiltration of the inflammatory cells: mild (++) [5, 15]: 2 | The infiltration of the inflammatory cells: moderate (+++) [5, 15]: 1 | The infiltration of the inflammatory cells: negative (-) [5, 15]: 1 | The infiltration of the inflammatory cells: slight (+) [5, 15]: 2 | Thickening and consolidation of the pulmonary septum: mild (++) [5, 15]: 2 | Thickening and consolidation of the pulmonary septum: moderate (+++) [5, 15]: 1 | Thickening and consolidation of the pulmonary septum: negative (-) [5, 15]: 0 | Thickening and consolidation of the pulmonary septum: severe (++++) [5, 15]: 2 | Thickening and consolidation of the pulmonary septum: slight (+) [5, 15]: 1 | degree of fibrosis in the lungs using Masson staining: Moderately strong positive (+++) [5, 16]: 1 | degree of fibrosis in the lungs using Masson staining: extremely strong positive (++++) [5, 16]: 2 | degree of fibrosis in the lungs using Masson staining: moderately positive (++) [5, 16]: 1 | degree of fibrosis in the lungs using Masson staining: not positive (-) [5, 16]: 0 | degree of fibrosis in the lungs using Masson staining: weakly positive (+) [5, 16]: 2

O=c1ccc2ccc(O)cc2o1 [7-hydroxycoumarin]
CLint scaled at 1 µM [6]: 87.8 mL/min/kg | The hepatic extraction ratio (E) ([6]; 1 µM): 0.98 | CLint scaled at 1 µM ([6]; microsomes): 3630 mL/min/kg | half-life at 1 µM ([6]; microsomes): 1.68 min | microsomal CLint at 1 µM ([6]; microsomes): 824 µL/min/mg | The hepatic extraction ratio (E) [7]: 0.97 | The hepatic extraction ratio (E) [8]: 0.97 | The hepatic extraction ratio (E) [9]: 0.99 | The hepatic extraction ratio (E) [10]: 0.95 | CLint scaled at 1 µM [11]: 20.2 mL/min/kg | CLint scaled at 1 µM ([11]; microsomes): 774 mL/min/kg | half-life at 1 µM ([11]; microsomes): 2.25 min | microsomal CLint at 1 µM ([11]; microsomes): 617 µL/min/mg | CLint scaled at 1 µM ([12]; The predicted intrinsic hepatic clearance Cl int): 42.1 mL/min/kg | half-life at 1 µM ([12]; microsomes): 1.72 min | microsomal CLint at 1 µM ([12]; microsomes): 806 µL/min/mg | CLint scaled at 1 µM ([12]; microsomes, The amplified intrinsic clearance Cl int): 1210 mL/min/kg | CLint scaled at 1 µM [13]: 30.4 mL/min/kg | CLint scaled at 1 µM ([13]; microsomes): 2050 mL/min/kg | half-life at 1 µM ([13]; microsomes): 1.68 min | microsomal CLint at 1 µM ([13]; microsomes): 824 µL/min/mg | CLint scaled at 1 µM [14]: 52.3 mL/min/kg | CLint scaled at 1 µM ([14]; microsomes): 1010 mL/min/kg | half-life at 1 µM ([14]; microsomes): 2.47 min | microsomal CLint at 1 µM ([14]; microsomes): 562 µL/min/mg
